Source: US20150011751A1, “NOVEL TRIAZINE DERIVATIVE” (CARNA BIOSCIENCES, INC., priority 2012, published 2015)

Tests used:
Dephosphorylated BTK = Dephosphorylated BTK (Homo sapiens, UniProt Q06187); test: Test of activity inhibition against dephosphorylated BTK (mobility shift assay)
BTK = BTK (Homo sapiens, UniProt Q06187); test: Test of activity inhibition against BTK (mobility shift assay, QuickScout Screening Assist MSA)
Description: Kinase activity was measured by a mobility shift assay (MSA) method using QuickScout Screening Assist (trademark) MSA (commercially available kit, manufactured by Carna Biosciences, Inc.). FITC-labeled SRCtide peptide supplied with the kit was used as a substrate of a kinase reaction.
The heights of the respective peaks of the isolated substrate and phosphorylated substrate were designated S and P. Those containing the assay buffer added therein in place of the enzyme solution were measured as a blank.
Inhibition ratio (%) of a test compound was calculated according to the following equation:
where A, B, and C represent P/(P+S) of a blank well, P/(P+S) of a control solution well, and P/(P+S) of a well containing the compound added therein, respectively.
IC50 value was calculated by regression analysis of the inhibition ratio and the test compound concentration (logarithm).

[1] = system: intracellular BTK (pY223) in Ramos cells; conditions: test compound 0.3 μM, 1 hour, IgM 10 μg/mL 10 minutes
Description: (§1) The supernatant was recovered by a centrifugal operation (at 15,000 rpm for 15 minutes) and the amount of protein was quantitatively determined. The supernatant was mixed with SDS-sample buffer and the mixture was reacted at 95° C. for 5 minutes thereby modifying the protein to obtain a sample solution. […] Thereafter, the protein in the gel was transferred to a PVDF membrane, using an iBlot gel transfer system (Life Technologies Corporation).
(§2) The unreacted secondary antibody was washed with TBST buffer and reacted according to the attached protocol, using ECL Prime Western Blotting Detection System (GE Healthcare Ltd.), and then each band was detected by chemiluminescence using a CCD camera (ATTO, Light-CaptureII). The detected band was digitized by densitometry (ATTO CS Analyzer ver.3.0) and an inhibition ratio was calculated from the intensity of a band in each group on the assumption that luminescence of a band of phosphorylated BTK of the compound no-addition and IgM stimulated group is 100%, whereas, luminescence of a band of phosphorylated BTK of the compound no-addition and IgM non-stimulated group is 0%. Each band of phosphorylated BTK was corrected by the total BTK.
(§3) Thereafter, IgM (Invitrogen, H15100) diluted with the medium was added so that the final concentration becomes 10 μg/mL, followed by incubation at 37° C. for 10 minutes.
(§4) The intracellular BTK autophosphorylation inhibiting activity was indicated with the mark “***” when 70% or more, with the mark “**” when 50% or more and less than 70%, and with the mark “*” when 30% or more and less than 50%.

[2] = system: intracellular BTK (pY223) in Ramos cells; test: Inhibition of self-phosphorylation activity of intracellular BTK in IgM-stimulated Ramos cells (Western blot, Test Example 3-1); type: cell-based; conditions: test compound 1 μM, 1 hour, IgM 10 μg/mL 10 minutes
From the text: Combinations of primary antibody and secondary antibody as well as dilute concentrations used in the present test are as follows.

[3] = system: intracellular BTK (pY223) in Ramos cells; test: cells; conditions: Homo sapiens, read-out: BTK phosphorylation inhibitory activity
Description: as §1, §2, §3, §4

Sequence of BTK (Q06187 whole entry): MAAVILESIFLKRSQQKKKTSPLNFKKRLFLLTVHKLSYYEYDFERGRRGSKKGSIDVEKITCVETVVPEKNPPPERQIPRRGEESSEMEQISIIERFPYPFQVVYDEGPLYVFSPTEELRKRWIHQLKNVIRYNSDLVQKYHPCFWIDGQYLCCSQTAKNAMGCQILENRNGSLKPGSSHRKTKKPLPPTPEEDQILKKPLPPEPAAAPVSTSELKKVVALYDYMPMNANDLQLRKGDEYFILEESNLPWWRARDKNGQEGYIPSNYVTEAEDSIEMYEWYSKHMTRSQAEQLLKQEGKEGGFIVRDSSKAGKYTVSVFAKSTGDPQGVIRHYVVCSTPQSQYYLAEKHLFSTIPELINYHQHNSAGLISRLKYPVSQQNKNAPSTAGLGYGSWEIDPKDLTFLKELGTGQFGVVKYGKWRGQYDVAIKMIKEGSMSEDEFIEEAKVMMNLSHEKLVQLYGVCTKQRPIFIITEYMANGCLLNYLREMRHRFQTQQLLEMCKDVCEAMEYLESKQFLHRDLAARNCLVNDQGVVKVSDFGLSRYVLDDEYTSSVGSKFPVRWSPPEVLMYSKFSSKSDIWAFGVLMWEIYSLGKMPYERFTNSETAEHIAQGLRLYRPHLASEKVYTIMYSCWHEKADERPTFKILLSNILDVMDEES
Sequence of Dephosphorylated BTK (Q06187 whole entry): as above

Structure (SMILES) | IC50 (Dephosphorylated BTK) [nM] | IC50 (BTK) [nM] | BTK phosphorylation inhibitory activity [1] | BTK phosphorylation inhibition ratio [2] [%] | inhibition at 0.3 µM [3] [%]
Cc1c(NC(=O)c2ccc(C(C)(C)C)cc2)cccc1-c1ncnc(Nc2ccc(C(=O)N3CCC(O)CC3)cc2)n1 [Example 9, 4-(tert-Butyl)-N-[3-(4-{[4-(4-hydroxypiper-idine-1-carbonyl)phenyl]amino}-1,3,5-triazin-2-yl)-2-methylphen-yl]benzamide] | 2.1 | 12.6 | – | – | –
Cc1c(NC(=O)c2ccc(C(C)(C)C)cc2)cccc1-c1ncnc(Nc2ccc(C(=O)NCCN3CCOCC3)cc2)n1 [Example 8, 4-(tert-Butyl)-N-{2-meth-yl-3-[4-({4-[(2-morpho-linoethyl)carbamoyl]phenyl}amino)-1,3,5-triazin-2-yl]phenyl} benzamide] | 3.5 | 13.1 | – | – | –
Nc1nc(Nc2ccc(N3CCOCC3)cc2)nc(-c2cccc(N3CCc4cc(C5CC5)cc(F)c4C3=O)c2CO)n1 [Example 44, 2-(3-{4-Amino-6-[(4-morpholinophenyl)amino]-1,3,5-triazin-2-yl}-2-(hydroxymethyl)phenyl)-6-cycropropyl-8-fluoro-3,4-dihydroisoquinolin-1(2H)-one] | – | – | *** (70% or more) | – | –
COc1cc(Nc2ncnc(-c3cccc(NC(=O)c4ccc(C(C)(C)C)cc4)c3C)n2)cc(OC)c1OC [Example 1, 4-(tert-Butyl)-N-(2-methyl-3-[4-[(3,4,5-trimethoxyphenyl)amino]-1,3,5-triazin-2-yl]phenyl)benzamide] | 2.1 | 10 | – | 107 | > 70
Cc1c(NC(=O)c2ccc(C(C)(C)C)cc2)cccc1-c1ncnc(Nc2ccc(C(=O)N3CCOC(CN)C3)cc2)n1 (stereo not shown) [Example 7, N-{3-[4-({4-[2-(Amino-methyl)morpholine-4-car-bonyl]phenyl}amino)-1,3,5-triazin-2-yl]-2-methylphenyl}-4-(tert-butyl)benzamide] | 2.5 | 8.2 | – | – | –
Cc1c(NC(=O)c2ccc(C(C)(C)C)cc2)cccc1-c1ncnc(Nc2ccc(C(=O)N3CCN(C)CC3)cc2)n1 [Example 4, 4-(tert-Butyl)-N-[2-methyl-3-(4-{[4-(4-methylpiperazine-1-carbonyl)phenyl]amino}-1,3,5-triazin-2-yl)phenyl]benzamide] | 4.2 | 10 | – | – | –
Cc1c(NC(=O)c2ccc(C(C)(C)C)cc2)cccc1-c1ncnc(Nc2ccc(C(=O)N3CCN(CCO)CC3)cc2)n1 [Example 10, 4-(tert-Butyl)-N-{3-[4-({4-[4-(2-hydroxyeth-yl)piperazine-1-carbo-nyl]phenyl}amino)-1,3,5-triazin-2-yl]-2-meth-ylphenyl}benzamide] | 3.2 | 12.8 | – | – | –
Cc1c(NC(=O)c2ccc(C(C)(C)C)cc2)cccc1-c1nc(N)nc(Nc2ccc(C(=O)N3CCOC(CN)C3)cc2)n1 (stereo not shown) [Example 32, N-{3-[4-Amino-6-({4-[2-(aminomethyl)morpho-line-4-carbonyl]phenyl}amino)-1,3,5-triazin-2-yl]-2-methylphenyl}-4-(tert-butyl)benz-amide] | 0.8 | – | – | – | > 70
Nc1nc(Nc2cnn(CC3CC3)c2)nc(-c2cccc(N3CCc4cc(C5CC5)cc(F)c4C3=O)c2CO)n1 [Example 214, 2-[3-(4-Amino-6-{[1-(cyclo-propylmethyl)-1H-pyrazol-4-yl]amino}-1,3,5-triazin-2-yl)-2-(hydroxymethyl)phenyl]-6-cyclopropyl-8-fluoro-3,4-dihydroisoquinolin-1(2H)-one] | 0.3 | – | – | – | > 70
